These results are taken from ChEMBL document CHEMBL4184310, “Structure-based design and structure-activity relationships of 1,2,3,4-tetrahydroisoquinoline derivatives as potential PDE4 inhibitors” (Bioorg Med Chem Lett, 2018).

Series [1] can be described thus: Inhibition of PDE4 in human PBMC assessed as reduction in LPS-stimulated TNFalpha release preincubated for 30 mins followed by LPS stimulation for 18 hrs by TR-FRET assay. It is filed as cell-based. On the technique in general: Time-resolved FRET reads energy transfer from a long-lived donor to a nearby acceptor.
For series [2], the target named is 3',5'-cyclic-AMP phosphodiesterase 4B (Homo sapiens, UniProt Q07343). The series is described as follows: Inhibition of human U937 cells-derived PDE4B using [3H]-cAMP as substrate after 30 mins.
Series [3] concerns the target T1, cGMP-dependent 3',5'-cyclic phosphodiesterase (Homo sapiens, UniProt O00408). In words: Inhibition of human PDE2A.
Series [4] has as its target T2, Dual specificity calcium/calmodulin-dependent 3',5'-cyclic nucleotide phosphodiesterase 1A (Homo sapiens, UniProt P54750). In words: Inhibition of human PDE1A.
Series [5] addresses T3, cAMP and cAMP-inhibited cGMP 3',5'-cyclic phosphodiesterase 10A (Homo sapiens, UniProt Q9Y233). In words: Inhibition of human PDE10A2 at 50 uM relative to control.
In series [6] the target is T4, Dual 3',5'-cyclic-AMP and -GMP phosphodiesterase 11A (Homo sapiens, UniProt Q9HCR9). The series is described as follows: Inhibition of human PDE11A at 50 uM relative to control.
Series [7] deals with T5, High affinity cAMP-specific and IBMX-insensitive 3',5'-cyclic phosphodiesterase 8A (Homo sapiens, UniProt O60658). The series is described as follows: Inhibition of human PDE8A1 at 50 uM relative to control.
The target in series [8] is T6, High affinity cGMP-specific 3',5'-cyclic phosphodiesterase 9A (Homo sapiens, UniProt O76083). In words: Inhibition of human PDE9A2 at 50 uM relative to control.
Series [9] has as its target T7, High affinity 3',5'-cyclic-AMP phosphodiesterase 7A (Homo sapiens, UniProt Q13946). The series is described as follows: Inhibition of human PDE7A at 50 uM relative to control.
In series [10] the target is T8, Cone cGMP-specific 3',5'-cyclic phosphodiesterase subunit alpha' (Homo sapiens, UniProt P51160). In words: Inhibition of human PDE6C at 50 uM relative to control.
For series [11], the target named is T9, cGMP-specific 3',5'-cyclic phosphodiesterase (Homo sapiens, UniProt O76074). In words: Inhibition of human PDE5A at 50 uM relative to control.
The target in series [12] is T10, cGMP-inhibited 3',5'-cyclic phosphodiesterase 3B (Homo sapiens, UniProt Q13370). In words: Inhibition of human PDE3B at 50 uM relative to control.
In series [13] the target is T1, cGMP-dependent 3',5'-cyclic phosphodiesterase. The series is described as follows: Inhibition of human PDE2A at 50 uM relative to control.
Series [14] deals with T2, Dual specificity calcium/calmodulin-dependent 3',5'-cyclic nucleotide phosphodiesterase 1A. In words: Inhibition of human PDE1A at 50 uM relative to control.
The next series concerns Rattus norvegicus. In words: Anti-inflammatory activity in Sprague-Dawley rat model of LPS-induced asthma/COPD assessed as inhibition of neutrophilia in BALF at 10 mg/kg, po administered 30 mins prior to LPS challenge for 40 mins relative to control. It is filed as functional.
For another series, the system named is Mus musculus. The series is described as follows: Anti-inflammatory activity in Swiss albino mouse model of sepsis assessed as inhibition of LPS-induced TNFalpha release at 10 mg/kg, po administered 30 mins prior to LPS challenge for 90 mins by ELISA relative to control. It is filed as functional.
Series [15] deals with 3',5'-cyclic-AMP phosphodiesterase 4D (Homo sapiens, UniProt Q08499). The series is described as follows: Inhibition of human U937 cells-derived PDE4D using [3H]-cAMP as substrate after 30 mins.
The target in series [16] is T10, cGMP-inhibited 3',5'-cyclic phosphodiesterase 3B. In words: Inhibition of human PDE3B.
Series [17] has as its target T9, cGMP-specific 3',5'-cyclic phosphodiesterase. The series is described as follows: Inhibition of human PDE5A.
Series [18] deals with T8, Cone cGMP-specific 3',5'-cyclic phosphodiesterase subunit alpha'. The series is described as follows: Inhibition of human PDE6C.
The target in series [19] is T7, High affinity 3',5'-cyclic-AMP phosphodiesterase 7A. In words: Inhibition of human PDE7A.
For series [20], the target named is T5, High affinity cAMP-specific and IBMX-insensitive 3',5'-cyclic phosphodiesterase 8A. The series is described as follows: Inhibition of human PDE8A1.
The target in series [21] is T6, High affinity cGMP-specific 3',5'-cyclic phosphodiesterase 9A. In words: Inhibition of human PDE9A2.
Series [22] concerns the target T3, cAMP and cAMP-inhibited cGMP 3',5'-cyclic phosphodiesterase 10A. In words: Inhibition of human PDE10A2.
Series [23] concerns the target T4, Dual 3',5'-cyclic-AMP and -GMP phosphodiesterase 11A. The series is described as follows: Inhibition of human PDE11A.
The nature of series [24]: Stability in rat plasma assessed as parent compound remaining after 4 hrs. It is filed as ADME, cell-free. The following applies: read-out: Stability.
The species named for series [25] is Homo sapiens. In words: Selectivity ratio of IC50 for human U937 cells-derived PDE4D to IC50 for human U937 cells-derived PDE4B.
For series [26], the species on record is Homo sapiens. The series is described as follows: Potency index, ratio of rolipram IC50 to compound IC50 for inhibition of PDE4 in human PBMC.
Series [27] can be described thus: Stability in rat plasma assessed as parent compound remaining after 8 hrs. As to conditions: read-out: Stability. The class given is ADME, cell-free.

As a reminder, the IC50 is the concentration that gives 50% inhibition. Broadly, the inhibition is the drop in the measured response relative to a control, in per cent. One may read the inhibition in vivo as the percentage by which the read-out fell short of the control.

T7 sequence (Q13946 whole entry): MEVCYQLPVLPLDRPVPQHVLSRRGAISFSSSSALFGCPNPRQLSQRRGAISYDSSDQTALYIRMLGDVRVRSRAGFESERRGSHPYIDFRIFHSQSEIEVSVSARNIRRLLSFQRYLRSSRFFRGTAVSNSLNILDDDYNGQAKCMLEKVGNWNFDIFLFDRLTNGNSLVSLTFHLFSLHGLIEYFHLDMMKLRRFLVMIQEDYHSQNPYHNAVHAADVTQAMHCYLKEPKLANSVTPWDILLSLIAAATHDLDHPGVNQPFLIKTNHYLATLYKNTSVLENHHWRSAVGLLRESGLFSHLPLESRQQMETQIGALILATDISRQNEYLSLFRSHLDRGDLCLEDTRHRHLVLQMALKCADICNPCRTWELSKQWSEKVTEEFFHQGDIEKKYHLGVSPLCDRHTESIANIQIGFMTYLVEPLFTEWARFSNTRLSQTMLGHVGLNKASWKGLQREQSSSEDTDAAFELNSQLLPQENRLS
Sequence of 3',5'-cyclic-AMP phosphodiesterase 4B (Q07343 whole entry): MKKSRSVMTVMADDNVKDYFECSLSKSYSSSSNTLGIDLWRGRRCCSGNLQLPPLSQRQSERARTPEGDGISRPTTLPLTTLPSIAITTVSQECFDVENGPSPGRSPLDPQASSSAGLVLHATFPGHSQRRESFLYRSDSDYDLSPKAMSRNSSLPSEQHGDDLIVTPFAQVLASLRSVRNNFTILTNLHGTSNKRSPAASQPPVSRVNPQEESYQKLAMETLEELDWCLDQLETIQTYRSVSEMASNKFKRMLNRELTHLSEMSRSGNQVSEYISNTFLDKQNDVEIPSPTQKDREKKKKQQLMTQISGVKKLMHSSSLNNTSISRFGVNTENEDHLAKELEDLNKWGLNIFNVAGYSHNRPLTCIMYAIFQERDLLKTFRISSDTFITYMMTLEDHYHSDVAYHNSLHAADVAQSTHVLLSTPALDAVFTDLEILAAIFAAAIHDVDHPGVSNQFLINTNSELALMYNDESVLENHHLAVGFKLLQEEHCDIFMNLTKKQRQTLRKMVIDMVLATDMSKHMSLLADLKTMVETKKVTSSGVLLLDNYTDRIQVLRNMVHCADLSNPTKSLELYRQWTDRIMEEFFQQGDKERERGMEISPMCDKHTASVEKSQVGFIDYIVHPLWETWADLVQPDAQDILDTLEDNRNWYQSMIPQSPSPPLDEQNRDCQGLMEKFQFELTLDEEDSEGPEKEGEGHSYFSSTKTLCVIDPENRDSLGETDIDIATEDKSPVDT
Sequence of 3',5'-cyclic-AMP phosphodiesterase 4D (Q08499 whole entry): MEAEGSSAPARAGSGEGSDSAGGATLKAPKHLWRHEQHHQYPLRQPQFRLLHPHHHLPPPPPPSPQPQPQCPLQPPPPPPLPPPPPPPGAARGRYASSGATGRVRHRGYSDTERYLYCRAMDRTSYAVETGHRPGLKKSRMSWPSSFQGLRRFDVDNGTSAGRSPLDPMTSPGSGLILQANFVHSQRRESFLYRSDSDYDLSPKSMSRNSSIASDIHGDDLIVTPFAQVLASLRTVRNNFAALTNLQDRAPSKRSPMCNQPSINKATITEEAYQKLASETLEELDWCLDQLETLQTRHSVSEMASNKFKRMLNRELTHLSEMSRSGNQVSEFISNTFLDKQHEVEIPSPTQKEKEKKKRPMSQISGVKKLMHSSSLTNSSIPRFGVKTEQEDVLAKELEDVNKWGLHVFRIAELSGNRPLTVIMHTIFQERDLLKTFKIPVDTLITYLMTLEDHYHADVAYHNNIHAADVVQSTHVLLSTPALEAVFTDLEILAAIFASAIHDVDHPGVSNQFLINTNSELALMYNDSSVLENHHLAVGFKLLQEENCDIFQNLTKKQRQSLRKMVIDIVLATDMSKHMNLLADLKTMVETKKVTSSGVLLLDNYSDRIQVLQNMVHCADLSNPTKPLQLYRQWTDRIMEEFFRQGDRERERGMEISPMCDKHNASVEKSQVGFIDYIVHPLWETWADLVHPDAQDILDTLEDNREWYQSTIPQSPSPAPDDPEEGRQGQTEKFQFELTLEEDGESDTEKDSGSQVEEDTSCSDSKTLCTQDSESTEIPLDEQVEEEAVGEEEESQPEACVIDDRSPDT
T2 sequence (P54750 whole entry): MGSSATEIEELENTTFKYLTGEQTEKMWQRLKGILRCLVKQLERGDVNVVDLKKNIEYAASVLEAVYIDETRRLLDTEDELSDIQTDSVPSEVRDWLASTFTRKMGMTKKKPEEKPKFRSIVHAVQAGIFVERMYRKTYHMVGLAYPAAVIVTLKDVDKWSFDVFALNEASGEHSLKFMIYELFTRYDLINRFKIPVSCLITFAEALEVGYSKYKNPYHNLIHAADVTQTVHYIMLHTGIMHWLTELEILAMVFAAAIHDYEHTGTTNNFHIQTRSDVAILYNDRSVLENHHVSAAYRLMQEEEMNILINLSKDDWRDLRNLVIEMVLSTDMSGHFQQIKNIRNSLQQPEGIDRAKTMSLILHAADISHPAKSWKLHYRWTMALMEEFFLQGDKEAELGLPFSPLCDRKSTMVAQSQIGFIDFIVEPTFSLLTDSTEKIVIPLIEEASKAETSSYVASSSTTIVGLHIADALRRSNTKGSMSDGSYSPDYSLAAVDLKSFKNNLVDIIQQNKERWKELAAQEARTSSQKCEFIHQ
T1 sequence (O00408 whole entry): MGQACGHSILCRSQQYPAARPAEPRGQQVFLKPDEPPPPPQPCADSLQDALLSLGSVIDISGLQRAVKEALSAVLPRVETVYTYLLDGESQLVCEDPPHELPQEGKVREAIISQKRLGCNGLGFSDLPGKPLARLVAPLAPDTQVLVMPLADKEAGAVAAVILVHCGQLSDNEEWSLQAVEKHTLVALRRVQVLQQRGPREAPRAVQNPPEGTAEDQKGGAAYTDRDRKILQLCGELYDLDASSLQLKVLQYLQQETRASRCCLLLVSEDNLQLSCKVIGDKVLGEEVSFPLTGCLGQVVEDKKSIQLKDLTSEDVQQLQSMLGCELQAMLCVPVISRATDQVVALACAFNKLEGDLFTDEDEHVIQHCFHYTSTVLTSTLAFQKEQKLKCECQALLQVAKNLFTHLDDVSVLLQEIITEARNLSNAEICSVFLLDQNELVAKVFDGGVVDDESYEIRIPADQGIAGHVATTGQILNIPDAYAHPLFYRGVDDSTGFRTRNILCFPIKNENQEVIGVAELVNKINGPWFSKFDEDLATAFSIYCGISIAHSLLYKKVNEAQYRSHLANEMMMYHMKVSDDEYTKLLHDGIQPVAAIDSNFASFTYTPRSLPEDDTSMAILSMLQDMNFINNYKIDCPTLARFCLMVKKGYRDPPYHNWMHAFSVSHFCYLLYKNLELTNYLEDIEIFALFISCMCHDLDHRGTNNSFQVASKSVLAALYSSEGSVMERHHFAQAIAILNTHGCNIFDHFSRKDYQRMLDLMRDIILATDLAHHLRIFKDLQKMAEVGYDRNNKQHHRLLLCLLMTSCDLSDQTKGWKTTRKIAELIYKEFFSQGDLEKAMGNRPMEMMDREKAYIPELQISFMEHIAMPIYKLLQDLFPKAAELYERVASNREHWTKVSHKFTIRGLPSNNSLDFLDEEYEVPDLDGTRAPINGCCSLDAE
T6 sequence (O76083 whole entry): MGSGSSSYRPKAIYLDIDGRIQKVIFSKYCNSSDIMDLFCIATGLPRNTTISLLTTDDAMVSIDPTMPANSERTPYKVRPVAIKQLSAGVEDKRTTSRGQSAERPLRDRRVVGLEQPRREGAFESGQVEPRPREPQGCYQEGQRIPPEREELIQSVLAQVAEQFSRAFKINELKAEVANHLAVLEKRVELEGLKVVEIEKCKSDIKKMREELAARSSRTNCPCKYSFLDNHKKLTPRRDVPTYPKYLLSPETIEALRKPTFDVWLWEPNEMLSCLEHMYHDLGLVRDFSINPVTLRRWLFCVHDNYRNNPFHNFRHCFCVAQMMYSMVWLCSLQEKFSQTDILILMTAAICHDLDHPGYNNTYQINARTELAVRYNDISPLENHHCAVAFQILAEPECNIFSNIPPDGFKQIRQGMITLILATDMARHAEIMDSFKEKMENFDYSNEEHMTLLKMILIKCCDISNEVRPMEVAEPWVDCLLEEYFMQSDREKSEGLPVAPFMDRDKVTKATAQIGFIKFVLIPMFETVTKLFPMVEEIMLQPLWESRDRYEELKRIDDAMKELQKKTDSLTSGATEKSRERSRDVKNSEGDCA
T8 sequence (P51160 whole entry): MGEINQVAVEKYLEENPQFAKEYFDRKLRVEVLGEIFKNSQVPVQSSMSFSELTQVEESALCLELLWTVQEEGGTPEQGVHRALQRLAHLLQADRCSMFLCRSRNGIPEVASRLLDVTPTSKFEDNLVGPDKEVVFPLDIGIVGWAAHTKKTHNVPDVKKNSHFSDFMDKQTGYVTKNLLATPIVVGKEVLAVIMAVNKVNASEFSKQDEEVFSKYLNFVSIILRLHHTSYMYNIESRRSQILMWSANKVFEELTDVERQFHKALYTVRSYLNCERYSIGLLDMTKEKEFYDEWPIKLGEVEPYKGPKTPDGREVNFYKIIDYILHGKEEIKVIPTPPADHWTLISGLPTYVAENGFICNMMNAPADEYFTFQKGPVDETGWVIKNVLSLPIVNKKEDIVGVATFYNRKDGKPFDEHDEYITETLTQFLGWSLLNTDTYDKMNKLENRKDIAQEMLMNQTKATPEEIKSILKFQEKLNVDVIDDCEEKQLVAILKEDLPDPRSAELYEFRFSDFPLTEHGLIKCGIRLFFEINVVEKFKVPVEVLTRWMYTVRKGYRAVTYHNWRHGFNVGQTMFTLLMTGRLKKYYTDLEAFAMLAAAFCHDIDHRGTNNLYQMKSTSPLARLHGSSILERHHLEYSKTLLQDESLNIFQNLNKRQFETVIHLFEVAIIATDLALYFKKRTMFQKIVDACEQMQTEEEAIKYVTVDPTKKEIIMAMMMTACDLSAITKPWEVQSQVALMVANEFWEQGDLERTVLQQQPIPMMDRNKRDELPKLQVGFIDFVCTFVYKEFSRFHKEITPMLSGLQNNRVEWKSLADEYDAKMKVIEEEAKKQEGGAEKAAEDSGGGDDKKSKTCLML

Turning to `COc1cc2c(cc1OC1CCCC1)CN(C(=O)c1ccc(OC(F)(F)F)cc1)C(C(=O)O)C2` (centres undefined), the IC50 was found to be 69.3 µM in series [1] and 8.35 µM in [2].

In series [2], `COc1cc2c(cc1OC1CCCC1)CN(C(=O)c1ccc(OC(F)(F)F)cc1)C(C(=O)N(C)C)C2` (centres undefined) displayed an IC50 of 8.05 µM.

As to `COc1cc2c(cc1OC1CCCC1)CN(S(=O)(=O)c1ccc(NC(C)=O)cc1)CC2`, the IC50 was above 100 µM in series [3]; above 100 µM in series [4]; 5.75 µM in series [1]; 11.6 µM in [15]; 0.95 µM in series [2]; above 100 µM in series [16]. Besides, the IC50 in [17], in series [18], in series [19], in series [20], in [21] and in [22] was above 100 µM each time. Also, the IC50 in series [23] is above 100 µM. Besides, the inhibition in series [5] came out at 3%; in series [6], 7%; in [7], 11%; in series [8] it was 4%; in [9], 2%; in series [10], 8%. Besides, the inhibition in series [11] turned out to be 10%; in series [12] it was 4%; in series [13], 10%; in series [14], 3%. The inhibition in vivo at 10 mg/kg was determined as 37.1% in the series on Rattus norvegicus and 44.3% in the series with Mus musculus.

Turning to `COc1ccc(C(=O)N2CCc3cc(OC)c(OC4CCCC4)cc3C2)cc1OC`, the IC50 in series [1] stood at 28.6 µM; in series [15], 18.3 µM; in series [2], 2.85 µM.

`CCN(CC)C(=O)C1Cc2cc(OC)c(OC3CCCC3)cc2CN1C(=O)c1ccc(OC(F)(F)F)cc1` (centres undefined) had an IC50 in series [2] of 12.7 µM.

Regarding `COC(=O)C1Cc2cc(OC)c(OC3CCCC3)cc2CN1C(=O)c1ccc(OC(F)(F)F)cc1` (centres undefined), the IC50 in [3] is above 100 µM; in series [4], above 100 µM; in series [1] it was 2.12 µM; in [15] it was 18.4 µM; in [2] it was 0.88 µM; in [16], above 100 µM. Besides, the IC50 in series [17], in series [18], in [19], in [20], in [21] and in series [22] was above 100 µM in each case. The half-inhibitory concentration (IC50) in [23] is above 100 µM. The inhibition in series [5] turned out to be 3%; in series [6] it was 6%; in series [7], 13%; in [8], 6%; in series [9], 2%; in [10], 7%. Also, the inhibition came to 12% in [11], 5% in [12], 9% in [13] and 4% in [14]. Also, the remaining at 4 h in series [24] turned out to be 72.8%. Moreover, the Ratio IC50 in the series listed under Homo sapiens [25] was found to be 21; in the series listed under Homo sapiens [26], 5. Moreover, in series [27], the remaining at 8 h was 51.8%. Moreover, the inhibition in vivo at 10 mg/kg was 45.3% with Rattus norvegicus and 50.2% in the series on Mus musculus.

As for `CCCCCOC(=O)C1Cc2cc(OC)c(OC3CCCC3)cc2CN1C(=O)c1ccc(OC(F)(F)F)cc1` (centres undefined), the IC50 in series [2] was above 50 µM.

As for `COc1ccc(C2CNC(=O)C2)cc1OC1CCCC1` (centres undefined) [ROLIPRAM], the inhibition in vivo at 10 mg/kg was 32.5% in the series on Rattus norvegicus and 41.2% in the series with Mus musculus.

Consider `COc1ccc(C(=O)N2CCc3cc(OC)c(OC4CCCC4)cc3C2)cc1O`, for which the IC50 in series [1] is 36.6 µM; in series [15], 18.6 µM; in series [2] it was 3.42 µM.

In the case of `COc1cc2c(cc1OC1CCCC1)CN(C(=O)c1ccc(O)cc1)CC2`, the figures for the concentration for half-maximal inhibition (IC50) in series [1], in [15] and in [2] were 48.3 µM, 16.3 µM and 3.25 µM, respectively.

In [2], `COc1cc2c(cc1OC1CCCC1)CN(C(=O)c1cccc(Cl)c1)CC2` returned an IC50 of 20.5 µM.

`O=C(Nc1c(Cl)cncc1Cl)c1ccc(OC(F)F)c(OCC2CC2)c1` [ROFLUMILAST]: the inhibition in vivo at 10 mg/kg with Rattus norvegicus came out at 97.6%; in the series on Mus musculus it was 98.8%. Also, in series [1], the IC50 amounted to 1.21 µM.

`COc1ccc(S(=O)(=O)N2CCc3cc(OC)c(OC4CCCC4)cc3C2)cc1`: the IC50 in [1] is 29.7 µM; in series [15], 43.6 µM; in series [2], 3.1 µM.

Regarding `COc1cc2c(cc1OC1CCCC1)CN(C(=O)c1ccc(OC(F)(F)F)cc1)CC2`, the 50% inhibitory concentration (IC50) in series [1] came out at 9.85 µM; in series [15] it was 6.5 µM; in [2], 1.05 µM.

Compound `COc1cccc(C(=O)N2CCc3cc(OC)c(OC4CCCC4)cc3C2)c1` returned an IC50 in [2] of 19.7 µM.

Turning to `CNC(=O)C1Cc2cc(OC)c(OC3CCCC3)cc2CN1C(=O)c1ccc(OC(F)(F)F)cc1` (centres undefined), the IC50 in [2] was determined as 16.4 µM.

Turning to `COc1cc2c(cc1OC1CCCC1)CN(C(=O)c1ccc(OC(F)(F)F)cc1)C(C(=O)OCc1ccccc1)C2` (centres undefined), in [24], the remaining at 4 h was determined as 84.2%. The remaining at 8 h in series [27] came to 71.6%. Further, the IC50 in series [2] was above 50 µM.

For `COc1cc2c(cc1OC1CCCC1)CN(C(=O)c1ccc(Cl)cc1)CC2`, the half-inhibitory concentration (IC50) in series [15] amounted to 92.6 µM; in series [2], 18.4 µM.

Take `COc1ccc(C(=O)N2CCc3cc(OC)c(OC4CCCC4)cc3C2)cc1`: the half-maximal inhibitory concentration (IC50) is 31.3 µM in [1], 13.3 µM in series [15] and 2.38 µM in [2].

`COc1cc2c(cc1OC1CCCC1)CN(S(=O)(=O)c1ccc(Cl)cc1)CC2`: the IC50 is 134 µM in series [15] and 11 µM in series [2].

Compound `COc1cc2c(cc1OC1CCCC1)CN(C(=O)c1ccc(OC(F)(F)F)cc1)C(C(=O)OC1CCCC1)C2` (centres undefined) registered an IC50 in series [2] above 50 µM.

For the compound `CCOC(=O)C1Cc2cc(OC)c(OC3CCCC3)cc2CN1C(=O)c1ccc(OC(F)(F)F)cc1` (centres undefined), the remaining at 4 h in series [24] was 73.7%. The Ratio IC50 in the series filed under Homo sapiens [25] was 21. Also, the remaining at 8 h in series [27] came out at 54.9%. Besides, the concentration for half-maximal inhibition (IC50) in series [1] was found to be 12.6 µM; in series [15], 32.7 µM; in [2], 1.62 µM.
